Test results reported in PMC10622577, “Structural basis for stabilisation of the RAD51 nucleoprotein filament by BRCA2” (Nature Communications, 2023).

Tests used:
RAD51 D184A = assay: EMSA of BRC4 disruption of NPF formation, RAD51 D184A; format: binding, human; settings: BRC4 pre-mixed with RAD51 10 min, room temperature, before addition of ss- or dsDNA, performed once
Procedure: (§1) To test whether the acidic patch was also required for BRC4 binding to RAD51, we examined whether the interaction of a BRC4 peptide spanning BRCA2 amino acids 1514 to 1548 was impacted by the D184A and D184A, D187 mutations.
(§2) To assess RAD51 nucleoprotein (NPF) formation, wild-type and mutant RAD51 proteins were incubated with DNA in buffer: 25 mM HEPES pH 7.5, 150 mM NaCl, 2 mM DTT, 2 mM ATP, 5 mM CaCl2 for 15 minutes at room temperature. For filament binding of the TR2 peptide or His6-MBP-TR2 protein, the RAD51 NPFs were incubated with TR2 for further 5 minutes at room temperature. For filament binding of BRC4, the BRC4 peptide was pre-mixed with RAD51 for 10 minutes at room temperature before addition of DNA. For experiments with mono-streptavidin (mSA)-capped DNA, mSA (Sigma) was added in 5× molar excess of biotin labels for 15 minutes at room temperature prior to the addition of RAD51. Concentrations are provided in figures and DNA sequences for each experiment are reported in Supplementary Table 1.
(§3) Before electrophoresis, samples were mixed with a 0.5:1 volume of 50% (w/v) sucrose solution and analysed on a pre-run 0.5% (w/v) agarose gel in 0.5× TB buffer at 35 V for 2.5 hours at 4 °C. DNA was visualised by excitation of the fluorescent tag or, in the case of unlabelled DNA, by SYBR Gold staining. […]

RAD51 D184A, D187A = assay: EMSA of BRC4 disruption of NPF formation, RAD51 D184A, D187A; format: binding, human; settings: BRC4 pre-mixed with RAD51 10 min, room temperature, before addition of ss- or dsDNA, performed once
Procedure: as §1, §2, §3

wild-type RAD51 NPF = assay: SPR of BRC4-induced disassembly of wild-type RAD51 NPF; format: binding, human; settings: BRC4 0.1-15 μM, 120 s, CMA buffer pH 7.4, response minima, ss- and dsDNA, n = 3
Procedure: (§4) We investigated further the effect of the acidic patch mutations on TR2 binding using surface plasmon resonance (SPR). We developed an SPR assay whereby increasing amounts of TR2 peptide were added to RAD51 NPFs that had been assembled on biotinylated DNA coupled to a streptavidin chip (Supplementary Fig. 3A, Supplementary Table 1). […] We used the same SPR assay to assess the effect of the mutations on the ability of BRC4 to disrupt an established filament (Supplementary Fig. 4A, Supplementary Table 1).
(§5) All SPR experiments were performed using a Biacore T200 instrument and an S-series SA (Streptavidin) sensor chip. A single chip was used to immobilise biotinylated single- and double-stranded DNA in buffer: 25 mM HEPES pH 7.4, 100 mM NaCl, 1 mM EDTA. ssDNA and dsDNA were immobilised in different channels to a signal of 120 RU and 250 RU, respectively.
(§6) All binding experiments were performed in CMA buffer: 25 mM HEPES pH 7.4, 100 mM NaCl, 2 mM DTT, 2 mM ATP, 5 mM CaCl2, 5 mM MgCl2. 1 μM RAD51 (wild-type, D184A or D184A, D187A mutant proteins) was injected for 120 seconds followed by buffer for 120 seconds at a flow rate of 10 μl/min. TR2 or BRC4 peptides were then injected in a concentration titration series of 0.1, 0.25, 0.5, 0.75, 1, 2, 3, 5, 7.5, 10 and 15 μM for 120 seconds at a flow rate of […] followed by a dissociation time of 240 seconds. […]

RAD51 D184A NPF = assay: SPR of BRC4-induced disassembly of RAD51 D184A NPF; format: binding, human; settings: BRC4 0.1-15 μM, 120 s, CMA buffer pH 7.4, response minima, ss- and dsDNA, n = 3
Procedure: as §4, §5, §6

RAD51 D184A, D187A NPF = assay: SPR of BRC4-induced disassembly of RAD51 D184A, D187A NPF; format: binding, human; settings: BRC4 0.1-15 μM, 120 s, CMA buffer pH 7.4, response minima, ss- and dsDNA, n = 3
Procedure: as §4, §5, §6

RAD51;BRCA2 TR2 peptide [1] = target: T1, RAD51;BRCA2 TR2 peptide (Homo sapiens;Homo sapiens, UniProt Q06609;P51587 1-339;, |); assay: cryo-EM structure; mSA caps; no bundling; EMSA: 25 mM HEPES pH 7.5, 150 mM NaCl, 2 mM DTT, 2 mM ATP, 5 mM CaCl2, room temperature; SPR: 25 mM HEPES pH 7.4, 100 mM NaCl, 2 mM DTT, 2 mM ATP, 5 mM CaCl2, 5 mM MgCl2; settings: tags: untagged (co-expressed with His6-MBP-BRC4, pMBP4-RAD51);; label: 5' biotin on both strands; 3' Cy3 on strand 1; blunt ends, internal mismatched bubble about 10 nt
RAD51;BRCA2 TR2 peptide [2] = target: T1, RAD51;BRCA2 TR2 peptide; assay: cryo-EM structure; mSA caps; EMSA: 25 mM HEPES pH 7.5, 150 mM NaCl, 2 mM DTT, 2 mM ATP, 5 mM CaCl2, room temperature; SPR: 25 mM HEPES pH 7.4, 100 mM NaCl, 2 mM DTT, 2 mM ATP, 5 mM CaCl2, 5 mM MgCl2; settings: tags: untagged (co-expressed with His6-MBP-BRC4, pMBP4-RAD51);; label: 5' and 3' biotin

Question: Which “ability of BRC4 to disrupt RAD51 NPF formation” value (RAD51 D184A) does the source give for “EKIKEPTLLGFHTASGKKVKIAKESLDKVKNLFDE [BRC4, BRC4 peptide spanning BRCA2 amino acids 1514 to 1548]” here?
Answer: moderately reduced

Question: What about the “ability of BRC4 to disrupt RAD51 NPF formation” value (RAD51 D184A, D187A) of the same molecule?
Answer: severely impaired

Question: What about the “disassembly of an established RAD51 NPF by BRC4” value (wild-type RAD51 NPF) of the same molecule?
Answer: able to induce disassembly of a wild-type RAD51 NPF

Question: What about the “disassembly of an established RAD51 NPF by BRC4 relative to wild-type” value (RAD51 D184A NPF) of the same molecule?
Answer: moderately reduced

Question: And the “disassembly of an established RAD51 NPF by BRC4, reduction relative to wild-type” value (RAD51 D184A, D187A NPF)?
Answer: to a large degree

B1: 50-nt dsDNA doubly biotinylated Cy3 (dsDNA)
DNA 1: CCGACTGACGCTCAACATAGGTACCACACGGCGAGCTCGATGCACCTCCA
DNA 2: TGGAGGTGCATCGAGCTCGCGACAAACCTTCTATGTTGAGCGTCAGTCGG
Question: Does B1 bind (RAD51;BRCA2 TR2 peptide [1])?
Answer: binds

B2: 60-nt ssDNA doubly biotinylated (ssDNA)
DNA: ATGGTGTGTGTAGGTTAATGTGAGGAGGAGAGGTGAAGAAGGAGGAGAGAAGAAGGAGGC
Question: Does B2 bind (RAD51;BRCA2 TR2 peptide [2])?
Answer: binds
